From ChEMBL document CHEMBL1147790, “Synthetic analogues of the manzamenones and plakoridines which inhibit DNA polymerase” (Bioorg Med Chem Lett, 2006)

Columns and labels:
[1] = biological target: T1, DNA polymerase alpha catalytic subunit (Homo sapiens, UniProt P09884); assay: Inhibition of DNA polymerase alpha
T1 sequence (P09884 whole entry): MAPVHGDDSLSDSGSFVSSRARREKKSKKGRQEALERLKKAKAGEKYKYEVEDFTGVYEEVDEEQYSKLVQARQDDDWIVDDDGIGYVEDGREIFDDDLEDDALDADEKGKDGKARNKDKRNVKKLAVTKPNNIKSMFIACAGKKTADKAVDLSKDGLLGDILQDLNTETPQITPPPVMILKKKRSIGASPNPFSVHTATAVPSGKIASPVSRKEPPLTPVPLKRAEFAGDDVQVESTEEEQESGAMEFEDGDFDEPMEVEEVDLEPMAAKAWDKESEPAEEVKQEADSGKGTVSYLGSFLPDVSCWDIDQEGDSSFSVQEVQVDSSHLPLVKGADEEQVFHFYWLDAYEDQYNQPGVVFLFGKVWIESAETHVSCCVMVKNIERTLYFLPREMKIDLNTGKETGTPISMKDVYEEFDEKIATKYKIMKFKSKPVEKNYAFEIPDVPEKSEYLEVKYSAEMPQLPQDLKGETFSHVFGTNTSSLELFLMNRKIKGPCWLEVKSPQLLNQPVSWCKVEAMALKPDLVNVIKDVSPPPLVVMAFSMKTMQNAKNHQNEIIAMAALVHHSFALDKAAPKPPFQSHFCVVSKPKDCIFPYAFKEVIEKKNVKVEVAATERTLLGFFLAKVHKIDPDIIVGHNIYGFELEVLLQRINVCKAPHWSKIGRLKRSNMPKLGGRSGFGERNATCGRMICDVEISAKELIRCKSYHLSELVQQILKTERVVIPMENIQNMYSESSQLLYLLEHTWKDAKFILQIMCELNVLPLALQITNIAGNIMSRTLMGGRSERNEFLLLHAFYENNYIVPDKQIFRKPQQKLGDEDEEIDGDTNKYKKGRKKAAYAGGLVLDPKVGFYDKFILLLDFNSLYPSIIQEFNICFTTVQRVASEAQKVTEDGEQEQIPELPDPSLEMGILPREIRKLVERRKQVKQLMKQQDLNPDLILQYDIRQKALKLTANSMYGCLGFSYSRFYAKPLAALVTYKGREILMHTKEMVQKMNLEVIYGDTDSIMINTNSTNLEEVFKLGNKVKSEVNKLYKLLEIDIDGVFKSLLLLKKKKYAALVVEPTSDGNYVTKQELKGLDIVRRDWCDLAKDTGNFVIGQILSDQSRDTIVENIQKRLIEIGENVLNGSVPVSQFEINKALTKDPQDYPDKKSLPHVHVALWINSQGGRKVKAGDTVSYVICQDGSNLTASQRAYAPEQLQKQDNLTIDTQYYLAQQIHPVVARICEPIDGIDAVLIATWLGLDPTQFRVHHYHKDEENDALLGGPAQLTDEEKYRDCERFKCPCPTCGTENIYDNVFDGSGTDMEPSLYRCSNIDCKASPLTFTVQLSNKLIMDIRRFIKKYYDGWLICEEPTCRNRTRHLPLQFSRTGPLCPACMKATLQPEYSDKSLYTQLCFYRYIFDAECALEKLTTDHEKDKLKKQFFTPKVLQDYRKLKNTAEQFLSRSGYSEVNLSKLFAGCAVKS

DNA polymerase beta = DNA polymerase beta (Homo sapiens, UniProt P06746); assay: Inhibition of DNA polymerase beta
[2] = biological target: DNA nucleotidylexotransferase (Homo sapiens, UniProt P04053); assay: Inhibition of human TdT
Chain of DNA nucleotidylexotransferase (P04053 whole entry): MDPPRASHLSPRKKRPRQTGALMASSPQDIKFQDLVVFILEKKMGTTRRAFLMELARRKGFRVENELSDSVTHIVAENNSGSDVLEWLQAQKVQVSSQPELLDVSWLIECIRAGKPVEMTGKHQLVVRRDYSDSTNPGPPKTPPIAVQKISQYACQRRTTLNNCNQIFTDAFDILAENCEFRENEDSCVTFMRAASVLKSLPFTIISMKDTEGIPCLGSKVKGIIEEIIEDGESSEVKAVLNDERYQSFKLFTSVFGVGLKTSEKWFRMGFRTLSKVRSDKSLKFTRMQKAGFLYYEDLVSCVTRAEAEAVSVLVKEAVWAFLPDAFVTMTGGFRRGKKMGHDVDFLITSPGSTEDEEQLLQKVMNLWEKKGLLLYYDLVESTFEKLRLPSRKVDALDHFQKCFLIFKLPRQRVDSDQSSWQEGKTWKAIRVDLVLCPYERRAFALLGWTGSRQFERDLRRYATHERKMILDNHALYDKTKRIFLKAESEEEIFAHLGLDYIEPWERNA

In the case of `CCCCCCCCCCCCCCCC[C@]1(O)C=C[C@H](O)[C@H]1C(=O)OC` [PLAKEVULIN A], the IC50 [1] is reported as 66 µM and the IC50 (DNA polymerase beta) is reported as 179 µM.
Compound `CCCCCCCCCCCCC1=C[C@H](C(=O)O)[C@H]2C(=O)C(C(=O)OC)=C(CCCCCCCCCCCC)[C@H]2[C@H]1C(=O)OC` has an IC50 [1] of 1.9 µM, an IC50 (DNA polymerase beta) of 2.3 µM and an IC50 [2] of 8.6 µM.
`CCCCCCCCCCCCCCCCC(=O)/C=C/C(=O)CC(=O)OC` [E-ENEDIONE] showed an IC50 [1] of 3.7 µM and an IC50 (DNA polymerase beta) of 8.8 µM.
`CCCCCCCCCCCCCCCCC1=C[C@H](C(=O)OCC)[C@H]2C(=O)C(C(=O)OC)=C(CCCCCCCCCCCCCCCC)[C@H]2[C@H]1C(=O)OC` showed an IC50 [1] of 2.3 µM, an IC50 (DNA polymerase beta) of 1.9 µM and an IC50 [2] of 39.7 µM.
In the case of `CCCCCCCCCCCCC(=O)/C=C1\[C@H](O)[C@@H](C(=O)OC)[C@H](c2ccccc2)N1CCc1c[nH]c2ccccc12`, the IC50 [1] is reported as 21 µM, the IC50 (DNA polymerase beta) is reported as 10 µM and the IC50 [2] is reported as > 50 µM.
With `CCCCCCCCCCCCC(=O)/C=C1\[C@H](O)[C@@H](C(=O)OC)[C@H](CC)N1CCc1ccccc1` the IC50 [1] was 25 µM, the IC50 (DNA polymerase beta) was 22 µM and the IC50 [2] was > 50 µM.
In the case of `CCCCCCCCCCCCCCCCC1=C[C@H](C(=O)NCCc2ccccc2)[C@H]2C(=O)C(C(=O)OC)=C(CCCCCCCCCCCCCCCC)[C@H]2[C@H]1C(=O)OC`, the IC50 [1] is reported as 6.9 µM, the IC50 (DNA polymerase beta) is reported as 8.7 µM and the IC50 [2] is reported as > 12.5 µM.
With `CCCCCCCCCCCCCCCCC1=C[C@H](C(=O)OCC)[C@H]2C(=O)C(C(=O)OC)=C(CCCCCCCCCCCCCCCC)[C@H]2[C@@H]1C(=O)OC` the IC50 [1] was 3.5 µM, the IC50 (DNA polymerase beta) was 2.4 µM and the IC50 [2] was 48.4 µM.
`CCC1=C[C@H](C(=O)O)[C@H]2C(=O)C(C(=O)OC)=C(CC)[C@H]2[C@H]1C(=O)OC` was tested, and the IC50 [1] was > 50 µM, the IC50 (DNA polymerase beta) was > 50 µM and the IC50 [2] was > 50 µM.
Compound `CCCCCCCCCCCCCCCC[C@]1(O)C=CC(=O)[C@H]1C(=O)OC` [UNTENONE A] has an IC50 [1] of 4.3 µM and an IC50 (DNA polymerase beta) of 57 µM.
`CCCCCCCCCCCCCCCCC1=C[C@H](C(=O)OC)[C@H]2C(=O)[C@]3(C(=O)OC)C[C@]3(CCCCCCCCCCCCCCCC)[C@H]2[C@H]1C(=O)OC` was tested, and the IC50 [1] was > 12.5 µM, the IC50 (DNA polymerase beta) was > 12.5 µM and the IC50 [2] was > 12.5 µM.
With `CCCCCCCCCCCCCCCCC1=C[C@H](C(=O)O)[C@H]2C(=O)C(C(=O)OC)=C(CCCCCCCCCCCCCCCC)[C@H]2[C@H]1C(=O)OC` the IC50 [1] was 1.9 µM, the IC50 (DNA polymerase beta) was 3.2 µM and the IC50 [2] was 2.5 µM.
For `CCCCCCCCCCCCCCCCC1=C[C@H](C(=O)O)[C@H]2C(=O)C(C(=O)OC(C)C)=C(CCCCCCCCCCCCCCCC)[C@H]2[C@H]1C(=O)OC(C)C`, the IC50 [1] was 3.3 µM, the IC50 (DNA polymerase beta) was 4.4 µM and the IC50 [2] was 20 µM.
In the case of `CCCCCCCCCCCCC(=O)/C=C1\[C@H](O)[C@@H](C(=O)OC)[C@H](CC)N1Cc1ccccc1`, the IC50 [1] is reported as 19.9 µM, the IC50 (DNA polymerase beta) is reported as 30 µM and the IC50 [2] is reported as > 50 µM.
`CCCCCCCCCCCCC(=O)/C=C1\[C@@H](O)[C@@H](C(=O)OC)[C@H](CC)N1Cc1ccccc1` was tested, and the IC50 [1] was 19.7 µM, the IC50 (DNA polymerase beta) was 27.1 µM and the IC50 [2] was > 50 µM.
